From patent US20140295012A1, “LATENT HUMAN IMMUNODEFICIENCY VIRUS REACTIVATION” (priority 2011, published 2014) come the findings set out here.

Holding throughout (format): cell-based
Assay [1] deals with latently HIV-1 infected primary T cells. Description: Reactivation of latent HIV-1 infection in primary T cells (GFP). To be noted: 24 hours. The method, then:
Latently HIV-1 infected primary T cells were treated for 24 hours with aclacinomycin (ACM) or dactinomycin (ActD), or with the anti-CD3 monoclonal antibody (mAb) OKT3. Reactivation levels were determined as a percentage of GFP-positive cells 24 hours after stimulation. Viability of the cells correlates with the size of the symbol.
To determine if aclacinomycin or dactinomycin were capable of reactivating a latent HIV-1 infection in primary T cells, latently HIV-1 infected primary T cells were treated with aclacinomycin or dactinomycin or with the anti-CD3 monoclonal antibody OKT3 for 24 hours. Reactivation of the latent HIV-1 infection was observed by increasing levels of GFP fluorescence.

Assay [2] concerns latently HIV-1 infected CA5 T cells. How it is done:
Infection levels in the cell cultures were monitored by flow cytometric analysis of EGFP expression. Flow cytometric analysis was performed on a GUAVA EasyCyte (Millipore; Billerica, Mass.), or a LSRII (Becton & Dickinson; Franklin Lakes, N.J.).
Bacterial growth. Bacteria from various sources were isolated on TSA II agar plates containing 5% sheep blood. Bacterial isolates were then grown in RPMI 1640 medium supplemented with 10% FBS. After two days of incubation at 37° C. bacteria were pelleted and resuspended in RPMI medium to an optical density (OD600) of 8, aliquoted and frozen at −80° C. Unless otherwise indicated, Massilia timonae was grown in RPMI 1640 medium supplemented with 10% FBS. Typically, medium was inoculated with Massilia timonae from frozen stocks to an OD600 of 0.01. After 48 hours at 37° C., the culture was centrifuged at 3200 g to separate bacteria from the culture medium. Bacteria were resuspended in fresh medium to an OD600 of 8 and frozen to be used as references and stock cultures. The supernatant was then centrifuged at 10,000 g for 20 minutes and sterilized by passage through a 0.2 μm PVDF filter with low protein binding ability. HRF activity was determined by its ability to reactivate latent HIV-1 infection in CA5 cells. Only supernatants of which 6 μl reactivated infection in at least 60% of CA5 cells were used to study HRF properties.
Flow cytometry. Infection levels in the cell cultures were monitored by flow cytometric (FCM) analysis of GFP expression. FCM analysis was performed on a GUAVA EasyCyte (GUAVA Technologies, Inc.; Millipore; Billerica, Mass.) and a BD FACSCalibur or a LSRII (Becton & Dickinson; Franklin Lakes, N.J.). Cell sorting experiments were performed using a FACSAria™ Flow Cytometer (Becton&Dickinson). Data analysis was performed using either CellQuest (Becton&Dickinson) or GUAVA Express (GUAVA Technologies, Inc.).
To identify the optimal concentration of dactinomycin, CA5 T cells were pretreated with increasing concentrations of dactinomycin (0.0001 and 1 μg/ml), and then left untreated or stimulated with a sub-optimal concentration of HRF or TNF-α. Representative results for stimulation with HRF are depicted in FIG. 3. The chosen HRF concentration has only minimal HIV-1 reactivating effect by itself (15% reactivation over background). Twenty four hours after activator addition, levels of HIV-1 reactivation were determined as the percentage of GFP-positive cells using flow cytometric analysis, which allowed for the simultaneous determination of cell viability. […] Optimal pretreatment time was 18 hours. Maximum reactivation effects were seen 48 hours after stimulation.

The test system is the same in assay [3]. This is another data set of the same source.
For assay [4], the system named is latently HIV-2 infected J2574 reporter T cells. As to the kind of experiment: Priming of latent HIV-2 infection in J2574 reporter T cells infected with HIV-2 7312A.
Protocol: J2574 reporter T cells were infected with HIV-2 7312A and a latently infected cell population was established (>90% latently infected cells). […] Reactivation levels were determined 24 hours post HRF activation by quantifying the level of GFP-positive cells using flow cytometric analysis.
J2574 reporter T cells were generated by retrovirally transducing Jurkat T cells with a HIV-1 reporter construct (p2574) in which the HIV-1 LTR controls the expression of GFP. The HIV-1 LTR and the GFP gene are separated by a 2,500 base pair (bp) spacer element. Lentiviral particles were produced by transfecting 293T cells with p2574 and supplying gag-pol-rev-tat in trans. VSV-G was used as viral envelope protein. Following lentiviral transduction of Jurkat cells, all cells that spontaneously expressed GFP were removed by cell sorting. The GFP-negative population was then activated with PMA to identify all cells that would harbor an inducible LTR-GFP-LTR integration event. Cells that turned GFP-positive following stimulation were again selected by cell sorting. GFP expression in this population ceased after a few days leaving a population of GFP-negative reporter cells. The amount of founder cells for this population is calculated to represent >50,000 individual integration events.
To determine the ability of dactinomycin to prime a latent HIV-2 infection, a latently HIV-2 infected population of GFP reporter T cells was tested. Briefly, to create the latent HIV-2 infected population, J2574 reporter cells were infected with HIV-2 7312A and a population of latently HIV-2 infected cells was generated by removing the actively infected, GFP-positive cells using a fluorescence activated cell sorter.
For the next assay, the system named is NF-κB p65. Description: NF-κB p65 activity in nuclear extracts of Jurkat cells (TransAM NF-κB family ELISA). How it is done: FIGS. 7A-7D are graphs showing the kinetics of HRF-mediated induction of NF-κB activity. Jurkat or latently HIV-1 infected CA5 T cells were stimulated with optimal concentrations of PMA and HRF, and cells were harvested at the indicated time points. Nuclear extracts were generated and (FIGS. 7A and 7C) NF-κB p50 activity and (FIGS. 7B and 7D) NF-κB p65 activity were determined using the TransAM™ NF-κB family ELISA kit (Active Motif; Carlsbad, Calif.).
Cells were grown in RPMI medium supplemented with 10% FBS and 1% PSG to approximately 5×10^5 cells per milliliter. Cells were centrifuged and resuspended in fresh pre-warmed medium. PMA, HRF and/or JNKiV were added immediately at the indicated concentrations. The final cell density for the assay was 1×10^6 cells per milliliter. The culture flasks were kept in a humidified CO2 incubator at 37° C. For each time point, a 1 ml cell suspension was removed and immediately centrifuged at full speed in a tabletop centrifuge for 30 seconds. […] The protein concentration of the extracts was determined by using the BCA protein assay Kit (ThermoFisher). […] The absorbance at 595 nm was determined using a 96 well plate reader (Synergy HT, BIO-Tek; Winooski, Vt.).
NF-κB activity in nuclear extracts was quantified using the TransAM™ NF-κB family ELISA kit from Active Motif, Inc. (Carlsbad, Calif.) according to the manufacturer's instructions.

For the next assay, the system named is NF-κB. As to the kind of experiment: NF-κB activity measured by GFP production in Jurkat T cells. To be noted: compared with Salmonella typhimurium flagellin.

Values joined by “and” are separate entries in the source; they are usually repeats but may differ in a detail not shown here. Identical values can stand only once. *1 amine or outer side, *2 acyl side, *3 side chain or, on linkers, in order; H or OH if unused. Where a SMILES comes first, the peptide text is derived from it. Bridges are numbered along the chain shown (N, C = ends). Roman numbers before positions name the chains, in order. [ ]: non-standard residue; d: D form. Actinocin(9to1) = Cc1c2oc3c(C)ccc(C(=O)[*:1])c3nc-2c(C(=O)[*:2])c(N)c1=O; NMeV = CN[C@H](C(=O)O)C(C)C; Sar = CNCC(=O)O

For `Cc1c2oc3c(C)ccc(C(=O)N[C@@H]4C(=O)N[C@H](C(C)C)C(=O)N5CCC[C@H]5C(=O)N(C)CC(=O)N(C)[C@@H](C(C)C)C(=O)O[C@@H]4C)c3nc-2c(C(=O)N[C@@H]2C(=O)N[C@H](C(C)C)C(=O)N3CCC[C@H]3C(=O)N(C)CC(=O)N(C)[C@@H](C(C)C)C(=O)O[C@@H]2C)c(N)c1=O` [dactinomycin] (I: T[dV]P[Sar][NMeV] / II: T[dV]P[Sar][NMeV]; ester I:1-I:C, II:1-II:C; linker I:N-II:N via Actinocin(9to1)), the “reactivation of latent HIV-1 infection” value in assay [1] is reported as “capable of reactivating latent HIV-1 infections”. For the same molecule, the “priming effect on HIV-1 reactivation by sub-optimal dose of HRF” value in assay [2] (CA5 cells pretreated with increasing concentrations) is on record as “strong priming effect”. Besides, the “concentration of optimal priming activity” value in assay [2] (pretreatment, then sub-optimal HRF or TNF-α, both T cell lines) was “about 4 ng/ml and ~3.18 nM”. Further, the “priming effects with low concentrations of TNF-α or PMA as reactivating agents” value in assay [3] was “Priming effects of dactinomycin were also observed”. In assay [3] (CA5 cells, same sense integration, 4 ng/ml, 18 hours pretreatment), the “priming effect for reactivation by TNF-α” value is given as “exerted its priming effect in each integration scenario”. For the same molecule, in assay [3] (observed at the onset of drug toxicities), the “concentrations acting as inhibitor of HIV-1 expression and reactivation” value is at least 10 ng/mL. In addition, in assay [3] (pretreatment, then sub-optimal HRF or TNF-α), the “concentrations at which a priming effect was observed” value is at least 0.5 ng/mL. Moreover, the “concentration range that efficiently primed latent HIV-2 infection for reactivation” value in assay [4] (18 hours pretreatment, sub-optimal HRF) lay within 2 to 8 ng/mL. Also, the HIV-2 reactivation levels entry in assay [4] (costimulation: dactinomycin pretreatment plus sub-optimal HRF) is recorded as “up to 90%”.

B1: HRF: flagellin polypeptide from Massilia timonae (SEQ ID NO:10), used as bacterial culture supernatant (protein)
chain: MASVINTNVPSLNSQRNLSTSQAQLNTSIQRLSSGMRINSAKDDAAGLAISDRMNSQIKGMTQATRNANDGVSMAQTAEGALSSSGDILQRIRELAVQSSNSSNSASDRKALQTEVTQLSSELNRIANTTEFNGQKLMDGTLGTANFQVGANAGQLISMTGANFNTSVYGNNQIAGDAAKAAATTSAAATGAFTISGYLGTSAAINTTDADTAKTIAASINNVTGDTGVTATARTDSFLKSAGGAHTMSLASDNSGTGEAVDISFTVGDGGDTADDYAAAISAFNAQTAKTGVTAEYDAVEKGLKLTNSAGENISLTNKAGSADIDMDTYAADGALMASALTLEAGDVGVANGRVTMDSEKSFSVAEGTDTGFELADSSALKSVAKIDISDFEGAQEAIKVADAALSAVNSQRAEYGALQSRFESAISNLSSSTENLSASRSRIVDTDFAAETAKMTRGQILQQAGTSMLAQANSLPNGVLSLLRG
Consider B1, for which the “NF-κB p65 activation amplitude compared to PMA stimulation” value in the assay with NF-κB p65 is around 3 fold. Also, in the assay on NF-κB, the “NF-κB activity and NF-κB driven gene expression” value was “lower levels of NF-κB activity and NF-κB driven gene expression than flagellin from Salmonella typhimurium”. Besides, in assay [2] (sub-optimal HRF concentration by itself), the “HIV-1 reactivation over background” value turned out to be 15%. Also, in assay [3] (compared with Salmonella typhimurium flagellin), the “efficiency of HIV-1 reactivation” value is given as “same efficiency as Salmonella typhimurium flagellin”. Besides, the “potency of activating latent HIV-1 provirus” value in assay [3] (compared with TNFα or PMA) is “potency comparable to that of TNFα or PMA”. The “HIV-2 reactivation (cells)” value in assay [4] (sub-optimal dose of HRF by itself) was 10%.
